# Source: patent US8497278B2, “Imidazo[1,2-a]pyridine compounds” (priority 2008, dated 2013)
# System: central benzodiazepine receptors
# Test: Central benzodiazepine receptor binding (test of Speth et al.)
# Settings: 1000 nM of the compound
# In short: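 Radioligand binding by the Speth et al. method. Specific binding is total minus nonspecific binding, the latter measured with excess unlabelled ligand. Compounds screened at 1.0E-09, 1.0E-07 and 1.0E-05 M in single determination; values given as percent inhibition at 1000 nM compound.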
row,Compound,% Inhibition at 1000 nM for CBZD
1,"Cc1ccc2nc(-c3ccc(Cl)cc3)c(Cc3nnc(C)o3)n2c1 [Compound 203, 2-((2-(4-chlorophenyl)-6-methylimidazo[1,2-a]pyridin-3-yl)methyl)-5-methyl-1,3,4-oxadiazole]",++ (percentage of inhibition of central BZD site binding is greater than 80% in the presence of 1000 nM of the compound)
2,"CON(C)C(=O)c1ncnn1Cc1c(-c2ccc(Cl)cc2)nc2ccc(Cl)cn12 [Compound 82, 2-[6-Chloro-2-(4-chloro-phenyl)-imidazo[1,2-a]pyridin-3-ylmethyl]-2H-[1,2,4]triazole-3-carboxylic acid methoxy-methyl-amide]",++ (percentage of inhibition of central BZD site binding is greater than 80% in the presence of 1000 nM of the compound)
3,"Cc1ccc(-c2nc3ccc(C)cn3c2CN2CCCCC2=O)cc1 [Compound 95, 1-((6-methyl-2-p-tolyl-H-imidazo[1,2-a]pyridin-3-yl)methyl)piperidin-2-one]",++ (percentage of inhibition of central BZD site binding is greater than 80% in the presence of 1000 nM of the compound)
4,"CNc1nnc(Cc2c(-c3ccc(Cl)cc3)nc3ccccn23)s1 [Compound 235, 5-((2-(4-chlorophenyl)imidazo[1,2-a]pyridin-3-yl)methyl)-N-methyl-1,3,4-thiadiazol-2-amine]",+ (percentage of inhibition of central BZD site binding is greater than 50% but less than 80% in the presence of 1000 nM of the compound)
5,"Cc1cccc(=O)n1Cc1c(-c2ccc(Cl)cc2)nc2ccc(Cl)cn12 [Compound 107, 1-((6-chloro-2-(4-chlorophenyl)H-imidazo[1,2-a]pyridin-3-yl)methyl)-6-methylpyridin-2(1H)-one]",++ (percentage of inhibition of central BZD site binding is greater than 80% in the presence of 1000 nM of the compound)
6,"CCOC(=O)c1cc(C)nn1Cc1c(-c2ccc(Cl)cc2)nc2ccccn12 [Compound 28, Ethyl 1-((2-(4-chlorophenyl)imidazo[1,2-a]pyridin-3-yl)methyl)-3-methyl-1H-pyrazole-5-carboxylate]",++ (percentage of inhibition of central BZD site binding is greater than 80% in the presence of 1000 nM of the compound)
7,"Cc1ccc(-c2nc3ccc(C)cn3c2Cn2[nH]c(C)cc2=O)cc1 [Compound 91, 1,2-dihydro-3-methyl-1-((6-methyl-2-p-tolyl-H-imidazo[1,2-a]pyridin-3-yl)methyl)pyrazol-5-one]",++ (percentage of inhibition of central BZD site binding is greater than 80% in the presence of 1000 nM of the compound)
8,"O=c1ccccn1Cc1c(-c2ccc(Cl)cc2)nc2ccc(Cl)cn12 [Compound 104, 1-((6-chloro-2-(4-chlorophenyl)H-imidazo[1,2-a]pyridin-3-yl)methyl)pyridin-2(1H)-one]",++ (percentage of inhibition of central BZD site binding is greater than 80% in the presence of 1000 nM of the compound)
9,"Clc1ccc(-c2nc3ccccn3c2Cc2cncc(OC3CCNC3)n2)cc1 (stereo not drawn) [Compound 186, 2-(4-chlorophenyl)-3-((6-(pyrrolidin-3-yloxy)pyrazin-2-yl)methyl)imidazo[1,2-a]pyridine]",++ (percentage of inhibition of central BZD site binding is greater than 80% in the presence of 1000 nM of the compound)
10,"CCOC(=O)c1nccn1Cc1c(-c2ccc(Cl)cc2)nc2ccccn12 [Compound 26, Ethyl 1-((2-(4-chlorophenyl)H-imidazo[1,2-a]pyridin-3-yl)methyl)-1H-imidazole-2-carboxylate]",++ (percentage of inhibition of central BZD site binding is greater than 80% in the presence of 1000 nM of the compound)
11,"Cc1ccc(-c2nc3ccc(C)cn3c2Cn2c(C)nc3ccccc32)cc1 [Compound 14, 2-Methyl-1-((6-methyl-2-p-tolylH-imidazo[1,2-a]pyridin-3-yl)methyl)-1H-benzo[d]imidazole]",− (percentage of inhibition of central BZD site binding is less than 50% in the presence of 1000 nM of the compound)
12,"CCOC(=O)c1nccn1Cc1c(-c2ccc(C)cc2)nc2ccc(C)cn12 [Compound 12, 1-(6-Methyl-2-p-tolyl-imidazo[1,2-a]pyridin-3-ylmethyl)-1H-imidazole-2-carboxylic acid ethyl ester]",++ (percentage of inhibition of central BZD site binding is greater than 80% in the presence of 1000 nM of the compound)
13,"Fc1ccc2nc(-c3ccc(Cl)cc3)c(Cn3cncn3)n2c1 [Compound 55, 3-((1H-1,2,4-triazol-1-yl)methyl)-2-(4-chlorophenyl)-6-fluoroH-imidazo[1,2-a]pyridine]",++ (percentage of inhibition of central BZD site binding is greater than 80% in the presence of 1000 nM of the compound)
14,"O=C1COc2ccccc2N1Cc1c(-c2ccc(Cl)cc2)nc2ccccn12 [Compound 124, 4-((2-(4-chlorophenyl)imidazo[1,2-a]pyridin-3-yl)methyl)-2H-benzo[b][1,4]oxazin-3(4H)-one]",++ (percentage of inhibition of central BZD site binding is greater than 80% in the presence of 1000 nM of the compound)
15,"Cc1ccc(-c2nc3ccc(C)cn3c2CSc2nc(C)cc(C)n2)cc1 [Compound 181, 3-((4,6-dimethylpyrimidin-2-ylthio)methyl)-6-methyl-2-p-tolylH-imidazo[1,2-a]pyridine]",++ (percentage of inhibition of central BZD site binding is greater than 80% in the presence of 1000 nM of the compound)
16,"CCOC(=O)c1cc(-c2ccco2)n(Cc2c(-c3ccc(Cl)cc3)nc3ccccn23)n1 [Compound 30, Ethyl 1-((2-(4-chlorophenyl)imidazo[1,2-a]pyridin-3-yl)methyl)-5-(furan-2-yl)-1H-pyrazole-3-carboxylate]",+ (percentage of inhibition of central BZD site binding is greater than 50% but less than 80% in the presence of 1000 nM of the compound)
17,"Cc1ccc(-c2nc3ccc(C)cn3c2CSc2ccccc2)cc1 [Compound 163, 6-Methyl-3-phenylsulfanylmethyl-2-p-tolyl-imidazo[1,2-a]pyridine]",++ (percentage of inhibition of central BZD site binding is greater than 80% in the presence of 1000 nM of the compound)
18,"Clc1ccc(-c2nc3ccc(Cl)cn3c2Cn2cncn2)cc1 [Compound 18, 3-((1H-1,2,4-triazol-1-yl)methyl)-6-chloro-2-(4-chlorophenyl)H-imidazo[1,2-a]pyridine]",++ (percentage of inhibition of central BZD site binding is greater than 80% in the presence of 1000 nM of the compound)
19,"O=c1ccc(Cl)cn1Cc1c(-c2ccc(Cl)cc2)nc2ccc(Cl)cn12 [Compound 108, 5-chloro-1-((6-chloro-2-(4-chlorophenyl)H-imidazo[1,2-a]pyridin-3-yl)methyl)pyridin-2(1H)-one]",++ (percentage of inhibition of central BZD site binding is greater than 80% in the presence of 1000 nM of the compound)
20,"Cc1ccc(-c2nc3ccc(C)cn3c2CNc2cc(C)ns2)cc1 [Compound 151, 3-methyl-N-((6-methyl-2-p-tolylH-imidazo[1,2-a]pyridin-3-yl)methyl)isothiazol-5-amine]",++ (percentage of inhibition of central BZD site binding is greater than 80% in the presence of 1000 nM of the compound)
21,"Cc1ccc(-c2nc3ccc(C)cn3c2Cn2ncnc2C(N)=O)cc1 [Compound 69, 2-(6-Methyl-2-p-tolyl-imidazo[1,2-a]pyridin-3-ylmethyl)-2H-[1,2,4]triazole-3-carboxylic acid amide]",++ (percentage of inhibition of central BZD site binding is greater than 80% in the presence of 1000 nM of the compound)
22,"Cc1ccc(-c2nc3ccc(C)cn3c2CSc2nc[nH]n2)cc1 [Compound 177, 6-Methyl-2-p-tolyl-3-(1H-[1,2,4]triazol-3-ylsulfanylmethyl)-imidazo[1,2-a]pyridine]",+ (percentage of inhibition of central BZD site binding is greater than 50% but less than 80% in the presence of 1000 nM of the compound)
23,"CCOC(=O)c1cn(Cc2c(-c3ccc(Cl)cc3)nc3ccccn23)c(=O)[nH]c1=O [Compound 126, Ethyl 1-((2-(4-chlorophenyl)imidazo[1,2-a]pyridin-3-yl)methyl)-2,4-dioxo-1,2,3,4-tetrahydropyrimidine-5-carboxylate]",− (percentage of inhibition of central BZD site binding is less than 50% in the presence of 1000 nM of the compound)
24,"Cc1ccc(-c2nc3c(Cl)cc(Cl)cn3c2CNc2nc(C)cc(C)n2)cc1 [Compound 172, (6,8-Dichloro-2-p-tolyl-imidazo[1,2-a]pyridin-3-ylmethyl)-(4,6-dimethyl-pyrimidin-2-yl)-amine]",++ (percentage of inhibition of central BZD site binding is greater than 80% in the presence of 1000 nM of the compound)
25,"O=c1[nH]c(Cc2c(-c3ccc(F)cc3)nc3ccc(F)cn23)no1 [Compound 236, 3-((6-fluoro-2-(4-fluorophenyl)imidazo[1,2-a]pyridin-3-yl)methyl)-1,2,4-oxadiazol-5(4H)-one]",++ (percentage of inhibition of central BZD site binding is greater than 80% in the presence of 1000 nM of the compound)
26,"Fc1cc(F)nc(NCc2c(-c3ccccc3)nc3ccc(Cl)cn23)n1 [Compound 168, N-((6-chloro-2-phenylimidazo[1,2-a]pyridin-3-yl)methyl)-4,6-difluoropyrimidin-2-amine]",++ (percentage of inhibition of central BZD site binding is greater than 80% in the presence of 1000 nM of the compound)
27,"CNC(=O)c1cc(C)n(Cc2c(-c3ccc(Cl)cc3)nc3ccccn23)n1 [Compound 80, 1-((2-(4-chlorophenyl)imidazo[1,2-a]pyridin-3-yl)methyl)-N,5-dimethyl-1H-pyrazole-3-carboxamide]",++ (percentage of inhibition of central BZD site binding is greater than 80% in the presence of 1000 nM of the compound)
